{
  "source": "patent US20240408101A1",
  "about": "“COMPOSITION AND METHODS OF TREATMENT USING […] - ENHANCED SUPPLEMENTATION” (Xygenyx Inc., priority 2023, published 2024)",
  "origin": "cited, not measured here",
  "key": {"[1]": {"settings": "mice"}, "[2]": {"tested_on": "skin", "settings": "as penetration enhancer for transdermal drugs"}, "[3]": {"tested_on": "wide dynamic range neurons in the ventroposterolateral nucleus of the thalamus"}, "[4]": {"settings": "in vivo"}, "[5]": {"tested_on": "skin", "settings": "topical application, concentrations 0.5-5%"}, "[6]": {"tested_on": "skin", "settings": "topical formulations, within four weeks of treatment"}, "[7]": {"settings": "dietary supplementation, doses up to 400 IU/day, controlled trials"}, "[8]": {"settings": "dietary supplementation, doses up to 400 IU/day"}, "[9]": {"settings": "in combination with 10-20 mg β-carotene and 400-500 mg vitamin C, doses around 400-500 IU"}, "[10]": {"settings": "compared to α-tocopherol taken as 1.0"}, "[11]": {"tested_on": "F2-isoprostane", "settings": "large doses of 1600-3200 IU/day"}, "[12]": {"settings": "even when dietary intake occurs in equal portions"}, "[13]": {"settings": "in vivo", "remark": "listed apart in the source"}},
  "note": "Where a SMILES comes first, the peptide text is derived from it.",
  "data": [
    {"compound": "CC(CN)C(=O)O", "note": "[L-BAIBA, L-beta-aminoisobutyric acid]", "values": [
      {"measurement": "tolerated dose", "setting": "[1]", "value": "10-100 mg/kg of bodyweight"}
    ]},
    {"compound": "CC(C)[C@@H]1CC[C@@H](C)C[C@H]1O", "note": "[Menthol]", "values": [
      {"measurement": "increase of transdermal drug uptake, factor", "setting": "[2]", "value": "≥ 10"}
    ]},
    {"compound": "CCCCCc1cc(O)c2c(c1)OC(C)(C)C1CCC(C)=CC21", "note": "(centres unmarked) [THC, Δ-9-tetrahydrocannabinol]", "values": [
      {"measurement": "analgesic power relative to morphine", "setting": "[3]", "value": "ten times more powerful than morphine"}
    ]},
    {"compound": "CCNC(=O)CC[C@H](N)C(=O)O", "note": "[Theanine]", "values": [
      {"measurement": "dose considered safe and well-tolerated", "setting": "[4]", "value": "up to 400 mg per day"}
    ]},
    {"compound": "C=CCCCCCCCCC(=O)N[C@@H](Cc1ccccc1)C(=O)O", "note": "[UP, Undecylenoyl phenylalanine]", "values": [
      {"measurement": "time to skin lightening effects", "setting": "[5]", "value": "≥ 7", "unit": "days"}
    ]},
    {"compound": "CC12CCC(CC1)C(C)(C)O2", "note": "[eucalyptol, 1,8-epoxy-p-menthane]", "values": [
      {"measurement": "increase of transdermal drug uptake, factor", "setting": "[2]", "value": "more than 10"}
    ]},
    {"compound": "CC[C@H](C)[C@H](NC(=O)[C@H](CC(=O)O)NC(=O)[C@@H](N)CCCCN)C(=O)N[C@@H](CCCNC(N)=O)C(N)=O", "note": "[tripeptide-10 citrulline, Tripeptide-10 citrulline] (HELM PEPTIDE1{K.D.I.[Cit].[am]}$$$$V2.0)", "values": [
      {"measurement": "improvement of suppleness", "setting": "[6]", "value": "≤ 54", "unit": "%"}
    ]},
    {"compound": "Cc1c(C)c2c(c(C)c1O)CC[C@@](C)(CCC[C@H](C)CCC[C@H](C)CCCC(C)C)O2", "note": "[α-tocopherol]", "values": [
      {"measurement": "reduction of risk of developing neurodegenerative diseases", "setting": "[7]", "value": "≤ 24", "unit": "%"},
      {"measurement": "reduction of risk of coronary disease", "setting": "[8]", "value": "up to 34%"},
      {"measurement": "reduction in the development of age-related cataracts", "setting": "[9]", "value": 23, "unit": "%"},
      {"measurement": "relative biological activity", "setting": "[10]", "value": 1.0},
      {"measurement": "blood plasma concentration of F2-isoprostane", "setting": "[11]", "value": "significantly lower"}
    ]},
    {"compound": "Cc1cc(O)c(C)c2c1O[C@](C)(CCC[C@H](C)CCC[C@H](C)CCCC(C)C)CC2", "note": "[β-tocopherol]", "values": [
      {"measurement": "relative biological activity", "setting": "[10]", "value": 0.5}
    ]},
    {"compound": "Cc1c(O)cc2c(c1C)O[C@](C)(CCC[C@H](C)CCC[C@H](C)CCCC(C)C)CC2", "note": "[γ-tocopherol]", "values": [
      {"measurement": "relative biological activity", "setting": "[10]", "value": 0.1},
      {"measurement": "concentration in vivo relative to α-tocopherol", "setting": "[12]", "value": "roughly 10%"}
    ]},
    {"compound": "Cc1cc(O)cc2c1O[C@](C)(CCC[C@H](C)CCC[C@H](C)CCCC(C)C)CC2", "note": "[δ-tocopherol]", "values": [
      {"measurement": "relative biological activity", "setting": "[10]", "value": 0.03}
    ]},
    {"compound": "HGH: hormone comprising a peptide chain synthesized in the pituitary gland", "values": [
      {"measurement": "biological half-life", "setting": "[13]", "value": "10-20 minutes"}
    ]}
  ]
}
